Earlier results as cited in patent publication US20240423997A1, “METHOD OF TREATING AMYOTROPHIC LATERAL SCLEROSIS” (priority 2021, published 2024).

Conditions: in vivo; Shibuya 2001; cited from earlier work

O=S(=O)(c1cccc2c(O)nccc12)N1CCCNCC1 [M3, hydroxyfasudil]
half-life: about 8 hours
